Measurements published in PMC10279719 (Nature Communications, 2023).

Legend:
[1] = molecular target: T1, 14-3-3η (Homo sapiens, UniProt Q04917); experiment: SPR, PEAK tandem peptides binding to immobilised 14-3-3η; conditions: peptide analyte over amine-coupled 14-3-3η (CM5); Biacore S200, HBS-TP pH 7.4, 20 °C; steady-state 1:1 fit; mean ± S.E.M.; read-out: SPR KD, 14-3-3η (eta)
T1 construct: 14-3-3η (UniProt Q04917-1; residues 1–246); 8-His tag with TEV protease cleavage site (N); made in house; host or cells: E. coli C41 (DE3)
T1 sequence (Q04917 1-246): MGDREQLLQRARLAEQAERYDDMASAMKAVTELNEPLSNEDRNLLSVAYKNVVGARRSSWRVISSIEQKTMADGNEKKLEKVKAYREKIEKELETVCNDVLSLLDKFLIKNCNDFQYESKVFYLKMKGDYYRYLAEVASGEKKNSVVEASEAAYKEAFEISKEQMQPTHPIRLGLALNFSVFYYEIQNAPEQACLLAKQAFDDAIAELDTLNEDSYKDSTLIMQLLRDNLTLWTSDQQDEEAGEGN
Protocol: Purified […]3 was diluted to 5 μg ml^-1 in 10 mM sodium acetate pH 4.0 and amine coupled at 25 °C to a Series S CM5 sensor chip, in HBS-N running buffer (20 mM HEPES pH 7.4, 150 mM NaCl) to a final immobilization level of 1100-1400 response units (RU), followed by surface deactivation using 1 M ethanolamine. A blank activation/deactivation was used for the reference surface. […] Samples were injected in a multi-cycle run (flow rate 30 μl min^-1, contact time of 60 s, dissociation 120 s) without regeneration. Sensorgrams were double referenced, and steady-state binding data fitted using a 1:1 binding model using Biacore S200 Evaluation Software (Cytiva, v. 1.1). […] Representative sensorgrams and fitted dissociation constant (KD) values, depicted as mean ± S.E.M.

[2] = molecular target: T2, CrkII^NSH3 (Homo sapiens, UniProt P46108); experiment: ITC, CrkII NSH3 titrated into PEAK3 tandem peptides (binary) or peptide:14-3-3γ complexes (ternary); format: binding; conditions: CrkII NSH3 (400 µM, syringe) into peptide pre-saturated with 14-3-3γ (16.8 µM, cell), 25 °C, HEPES pH 7.4, mean ± S.E.M. of N = 4 (pS69) or N = 1 (non-phosphorylated), read-out: ITC KD, CrkII N-SH3, ternary
T2 construct: CrkII^NSH3; UniProt P46108-1, residues 134–191; 8-His tag with TEV protease cleavage site (N); made in house; host or cells: E. coli C41 (DE3)
T2 sequence (P46108 134-191): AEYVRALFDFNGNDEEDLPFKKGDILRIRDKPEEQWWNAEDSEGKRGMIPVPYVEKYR
Protocol: ITC binding experiments were conducted using a MicroCal iTC200 instrument (Malvern Instruments). Titrations were conducted at 25 °C in reverse mode (peptide in cell, protein in syringe) and consisted of 19 injections of 2 μl […] at a rate of 2 s μl^−1 at 90 s time intervals, whilst stirring at 1000 rpm. An initial injection of 0.4 μl protein was made and discarded during data analysis. Proteins (14-3-3ɣ or CrkII^NSH3) were first dialyzed overnight at 4 °C into ITC buffer (20 mM HEPES pH 7.4, 150 mM NaCl, 1 mM TCEP), filtered and degassed under vacuum. […] Following the first titration, excess solution was removed from the cell, and the syringe was washed and dried. […] All data were fitted to a single binding site model to obtain the stoichiometry (N), dissociation constant (KD) and the enthalpy of binding (ΔH), using MicroCal PEAQ-ITC Analysis software (v.1.41).

Kd [1]: > 100000 nM
Kd [2]: 700 nM
Compound: CC[C@H](C)[C@H](NC(=O)[C@H](CCCCN)NC(=O)[C@H](CCCCN)NC(=O)[C@@H]1CCCN1C(=O)[C@H](CC(C)C)NC(=O)[C@@H]1CCCN1C(=O)[C@@H]1CCCN1C(=O)[C@@H]1CCCN1C(=O)[C@H](CC(C)C)NC(=O)[C@@H]1CCCN1C(C)=O)C(=O)N[C@@H](CC(C)C)C(=O)N[C@H](C(=O)N[C@@H](CCCNC(=N)N)C(=O)N[C@H](C(=O)N[C@@H](CCC(N)=O)C(=O)N[C@@H](CO)C(=O)N[C@@H](CC(C)C)C(=O)N1CCC[C@H]1C(=O)N[C@H](C(=O)N[C@@H](CCCNC(=N)N)C(=O)N[C@@H](CCCNC(=N)N)C(N)=O)[C@@H](C)O)[C@@H](C)O)[C@@H](C)O (single isomer, unassigned) [PEAK3^tandem]
